Laboratory results from patent US20050182242A1, “Global analysis of protein activities using proteome chips” (priority 2001, published 2005).

Tested on: total yeast genomic DNA
Assay: Yeast proteome chip probed with labeled genomic DNA
Assay type: binding
Conditions: Cy3-labeled genomic DNA, visual inspection
From the text: Protein-DNA and protein-RNA interactions are important for many fundamental biological functions such as transcription regulation, chromosome segregation and maintenance, and RNA transport and processing (Williamson, 2000, Nat. Struct. Biol. 7(10):834-7). To explore the possibility of using a proteome chip to identify proteins that bind to DNA or RNA molecules, total yeast genomic DNA was labeled using Cy3-CTP and Klenow fragment, and polyA^+ was labeled using a biotinylated psoralen-derivative (31). Each probe was incubated with a different proteome chip (FIG. 3A).
The protein-nucleic acid interaction was assayed as follows. The nucleic acid robes were labeled as described by Winzeler et al. (1999, Science 285:901). Blocked proteome chips were washed three to five times in PBS buffer, and the extra liquid on the glass surface was removed by tapping the slides vertically on a KIMWIPE™. 200 μl of labeled nuclei acid probe ([…] poly(dC/dG); 100-300 mM NaCl; 50-300 mM HEPES, pH 7.0-8.5; 10 mM MgCl2) was added to the proteome chip and immediately covered by a hydrophobic plastic cover slip (GRACE BIO-LABS™, USA). After trapped air bubbles were removed, the chip was incubated in a humidity chamber in the dark at room temperature (“RT”) for one hour. To remove the cover slip, the chip was immersed into large volume of PBS buffer(>50 ml), so that the slip would float away. […]

Gcd11p: gamma subunit of translation initiation factor eIF2
binding of genomic DNA probe: tested positive
